Measurements: patent publication US6849652B1, “1,2,4-triazole derivative, method for preparing the same, and pharmaceutical composition containing the same” (CJ Corp., priority 2002, dated 2005)

How the values were obtained:
COX-1 = target: T1, COX-1 (Homo sapiens, UniProt P23219); experiment: Assay for the COX-1 inhibitory activity using U-937 (PGE2 inhibition); assay type: cell-based; conditions: U-937 human lymphoma cells, test compound 1 μM, PGE2 vs DMSO control; read-out: Cyclooxygenase (COX) Inhibition (%) COX-1 (1 μM)
T1 construct: host or cells: U-937 human lymphoma cells
Procedure: The collected cells were diluted with HBSS (×1, Hank's balanced salt solution) to a concentration of 1×10^6 cells/ml. 1 ml of the dilute cell solution was placed into each well of 12-well plates. 5 μl of 1 μM solution of a test compound in DMSO and 5 μl of DMSO as a control were added to the wells. The wells were incubated in CO2 incubator at 37° C. for 15 minutes. Separately, 10 mM stock solution of arachidonic acid in ethanol was diluted ten times in ethanol to prepare 1 mM solution of arachidonic acid. Arachidonic acid acts as a substrate. 10 μl of the 1 mM solution of arachidonic acid was added to each well and incubated at CO2 incubator at 37° C. for 30 minutes. The cell solution of each well was placed in a centrifuge test tube and centrifuged at 10,000 rpm at 4° C. for 5 minutes. The concentration of PGE2 in the collected cells and the supernatant was quantified by means of a monoclonal kit (Cayman Chemicals). The percentages of PGE2 inhibition in a group of the test compound-treated cells in relation to a group of the DMSO-treated cells were calculated. Based on the calculated values, the COX-1 inhibitory activities were evaluated.
(§1) The percentages of the COX inhibition were calculated according to the following equation:
(§2) % Inhibition=(concentration of PGE2 in test compound-untreated sample —concentration of PGE2 in test compound-treated sample)/(concentration of PGE2 in test compound-untreated sample)×100

COX-2 = target: T2, COX-2 (Mus musculus, UniProt Q05769); experiment: Assay for the COX-2 inhibitory activity using RAW 264.7 cell line (PGE2 inhibition); assay type: cell-based; conditions: RAW264.7, RAW 264.7 cells, test compound 10 nM, interferon/LPS 18 hours, read-out: Cyclooxygenase (COX) Inhibition (%) COX-2 (10 nM)
T2 construct: host or cells: RAW 264.7 cells, aspirin-pretreated, then induced with interferon and LPS
T2 sequence (Q05769 18-604): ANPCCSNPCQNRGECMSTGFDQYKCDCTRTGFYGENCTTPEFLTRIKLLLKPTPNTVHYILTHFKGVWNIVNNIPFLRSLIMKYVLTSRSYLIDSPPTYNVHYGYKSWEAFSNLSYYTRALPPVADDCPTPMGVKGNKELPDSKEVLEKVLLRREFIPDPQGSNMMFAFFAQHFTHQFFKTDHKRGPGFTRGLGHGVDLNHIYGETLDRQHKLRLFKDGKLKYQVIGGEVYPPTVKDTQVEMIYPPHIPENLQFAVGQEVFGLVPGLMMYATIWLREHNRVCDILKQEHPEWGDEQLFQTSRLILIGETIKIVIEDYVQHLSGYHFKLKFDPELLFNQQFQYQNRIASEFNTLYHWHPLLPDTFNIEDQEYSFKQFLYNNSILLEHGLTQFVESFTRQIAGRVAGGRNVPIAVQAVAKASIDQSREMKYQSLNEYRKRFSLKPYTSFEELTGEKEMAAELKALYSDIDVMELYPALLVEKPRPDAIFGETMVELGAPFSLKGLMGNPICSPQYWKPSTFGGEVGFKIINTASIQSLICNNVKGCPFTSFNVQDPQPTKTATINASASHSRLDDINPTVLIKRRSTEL
Procedure: Each well was treated with 250 μM of aspirin and incubated at 37° C. for 2 hours. After the culture media were replaced with new culture media, the new culture media were treated with a test compound (10 nM) and incubated for 30 minutes. Then, each well was treated with interferon (100 units/ml) and lipopolysaccharide (LPS, 100 ng/ml) and incubated for 18 hours. The culture media were transferred to other test tubes. The concentration of PGE2 was quantified by means of the EIA kit (Cayman Chemicals).
as §1, §2

T1 sequence (P23219 24-599): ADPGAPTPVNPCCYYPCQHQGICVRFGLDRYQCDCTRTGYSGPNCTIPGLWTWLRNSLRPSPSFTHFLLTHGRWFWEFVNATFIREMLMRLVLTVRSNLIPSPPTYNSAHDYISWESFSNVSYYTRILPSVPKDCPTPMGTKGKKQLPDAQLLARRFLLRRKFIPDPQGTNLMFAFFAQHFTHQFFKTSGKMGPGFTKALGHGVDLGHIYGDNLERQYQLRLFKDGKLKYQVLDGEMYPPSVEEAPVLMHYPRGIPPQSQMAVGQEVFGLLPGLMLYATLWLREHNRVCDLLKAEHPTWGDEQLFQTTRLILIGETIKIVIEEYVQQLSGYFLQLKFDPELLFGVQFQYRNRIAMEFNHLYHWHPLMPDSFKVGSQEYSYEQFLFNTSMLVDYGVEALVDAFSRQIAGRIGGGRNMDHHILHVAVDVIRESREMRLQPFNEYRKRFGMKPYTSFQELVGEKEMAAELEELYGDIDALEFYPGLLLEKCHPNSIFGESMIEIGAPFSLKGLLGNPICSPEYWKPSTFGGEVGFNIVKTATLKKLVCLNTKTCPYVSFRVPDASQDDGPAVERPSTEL

SMILES | inhibition at 1 µM (COX-1) | inhibition at 0.01 µM (COX-2)
CS(=O)(=O)c1ccc(-n2nc(C(F)(F)F)nc2-c2ccccc2)cc1F [Example 22, 1-(3-fluoro-4-methanesulfonylphenyl)-5-phenyl-3-trifluoromethyl-1H-1,2,4-triazole] | 32.8% | 13.7%
CS(=O)(=O)c1ccc(-n2nc(C(F)(F)F)nc2-c2ccc(Br)cc2)cc1F [Example 25, 1-(3-fluoro-4-methanesulfonylphenyl)-5-(4-bromophenyl)-3-trifluoromethyl-1H-1,2,4-triazole] | 19.5% | 13.7%
CS(=O)(=O)c1ccc(-n2nc(C(F)(F)F)nc2-c2ccc(Cl)cc2)cc1F [Example 26] | 27.4% | 22.3%
CCOc1ccc(-c2nc(C(F)(F)F)nn2-c2ccc(S(C)(=O)=O)c(F)c2)cc1 [Example 28, 1-(3-fluoro-4-methanesulfonylphenyl)-5-(4-ethoxyphenyl)-3-trifluoromethyl-1H-1,2,4-triazole] | 25.7% | 15.6%
CS(=O)(=O)c1ccc(-n2nc(C(F)(F)F)nc2-c2ccc3ccccc3c2)cc1F [Example 33, 1-(3-fluoro-4-methanesulfonylphenyl)-5-(naphthalene-2-yl)-3-trifluoromethyl-1H-1,2,4-triazole] | 44.5% | 13.5%
CS(=O)(=O)c1ccc(-n2nc(C(F)(F)F)nc2-c2ccc3c(c2)OCO3)cc1F [Example 34, 5-([1,3]benzodioxole-5-yl)-1-(3-fluoro-4-methanesulfonylphenyl)-3-trifluoromethyl-1H-1,2,4-triazole] | 11.2% | 41.5%

Second part, the molecule after the results:

inhibition at 1 µM (COX-1) | inhibition at 0.01 µM (COX-2) | SMILES
15.5% | 41.2% | COc1ccc(-c2nc(C(F)(F)F)nn2-c2ccc(S(C)(=O)=O)c(F)c2)cc1 [Example 23, 1-(3-fluoro-4-methanesulfonylphenyl)-5-(4-methoxyphenyl)-3-trifluoromethyl-1H-1,2,4-triazole]
18.8% | 18.5% | CS(=O)(=O)c1ccc(-n2nc(C(F)(F)F)nc2-c2ccc(F)cc2)cc1F [Example 24, 1-(3-fluoro-4-methanesulfonylphenyl)-5-(4-fluorophenyl)-3-trifluoro methyl-1H-1,2,4-triazole]
26.4% | 19% | Cc1ccc(-c2nc(C(F)(F)F)nn2-c2ccc(S(C)(=O)=O)c(F)c2)cc1 [Example 27, 1-(3-fluoro-4-methanesulfonylphenyl)-5-(4-methylphenyl)-3-trifluoromethyl-1H-1,2,4-triazole]
11.1% | 16.4% | CS(=O)(=O)c1ccc(-n2nc(C(F)(F)F)nc2-c2cccc(Cl)c2)cc1F [Example 29, 1-(3-fluoro-4-methanesulfonylphenyl)-5-(3-chlorophenyl)-3-trifluoro methyl-1H-1,2,4-triazole]
23.2% | 15.1% | CS(=O)(=O)c1ccc(-n2nc(C(F)(F)F)nc2-c2cccc(F)c2)cc1F [Example 30, 1-(3-fluoro-4-methanesulfonylphenyl)-5-(3-fluorophenyl)-3-trifluoro methyl-1H-1,2,4-triazole]
26.4% | 16.2% | COc1ccc(-c2nc(C(F)(F)F)nn2-c2ccc(S(C)(=O)=O)c(F)c2)cc1F [Example 31, 1-(3-fluoro-4-methanesulfonylphenyl)-5-(3-fluoro-4-methoxyphenyl)-3-trifluoromethyl-1H-1,2,4-triazole]
23.2% | 27.8% | Cc1cccc(-c2nc(C(F)(F)F)nn2-c2ccc(S(C)(=O)=O)c(F)c2)c1 [Example 32, 1-(3-fluoro-4-methanesulfonylphenyl)-5-(3-methylphenyl)-3-trifluoromethyl-1H-1,2,4-triazole]
21.2% | 15.5% | CS(=O)(=O)c1ccc(-n2nc(C(F)(F)F)nc2-c2ccc(F)c(F)c2)cc1F [Example 35, 1-(3-fluoro-4-methanesulfonylphenyl)-5-(3,4-difluorophenyl)-3-trifluoromethyl-1H-1,2,4-triazole]
